In patent publication US10208074B2, “Pyrazole compounds and method for making and using the compounds” (Rigel Pharmaceuticals, Inc., priority 2015, dated 2019):
Counter-ions that a name gives are not always drawn. Like-named read-outs stand apart in the source and are kept apart here.

Assays:
IL-23 (p19/p40) = assay: IL23-p19 ELISA, Dendritic, LPS (compound screening using DC cells); format: cell-based, Human; conditions: Homo sapiens, 18 h, PBMC-derived DC cells, IFNγ primed, LPS 1 μg/ml, 18 hours, 10 pt; read-out: IL23-p19 ELISA, Dendritic, LPS, 10 pt, EC50
In short: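 IL-23 in supernatants quantified by sandwich ELISA (anti-p19 capture, biotinylated anti-p40 detection, chemiluminescent readout) after 18 h LPS (1 μg/ml) stimulation. Cells were monocyte-derived DCs (GM-CSF/IL-4, 7 d), IFNγ-primed 24 h and given compound 1 h before LPS; viability by CellTiter Glo.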

IL-23p19 = assay: LPS induced IL23p19 in THP-1 cells (with IFNγ primed) assay; format: cell-based, Human; conditions: THP-1 cells, IFNγ primed, LPS 1 ug/mL, 18 hours, 10 pt, read-out: IL23-p19 ELISA, THP1-IFNy, LPS, 10 pt EC50
In short: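 Readout is secreted IL-23p19, quantified by chemiluminescent sandwich ELISA after 18 h LPS (1 ug/mL) stimulation of THP-1 cells that had been IFNγ-primed (50 ng/mL, ~18 h) and given compound 1 h beforehand at 37 °C. EC50 derived by curve fit; cytotoxicity tracked with Cell Titer Glo.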

SMILES	EC50 (IL-23 (p19/p40))	EC50 (IL-23p19; Homo sapiens, THP-1, 18 h)	EC50 (IL-23p19)	EC50 (IL-23p19; formate)
O=C(Nc1cn(C2CCOC2)nc1-c1nccs1)c1csc(-c2cn[nH]c2)n1 (centres unmarked) [II-115, 2-(1H-pyrazol-4-yl)-N-(1-(tetrahydrofuran-3-yl)-3-(thiazol-2-yl)-1H-pyrazol-4-yl)thiazole-4-carboxamide]	159 nM	43.8 nM		
CCN(CC)CCn1cc(NC(=O)c2csc(-c3cn[nH]c3)n2)c(-c2ccccn2)n1 [II-117, N-(1-(2-(diethylamino)ethyl)-3-(pyridin-2-yl)-1H-pyrazol-4-yl)-2-(1H-pyrazol-4-yl)thiazole-4-carboxamide]	106 nM		56.6 nM	
O=C(Nc1cn(CCOCCF)nc1-c1ccccn1)c1csc(-c2cn[nH]c2)n1 [II-118, N-(1-(2-(2-fluoroethoxy)ethyl)-3-(pyridin-2-yl)-1H-pyrazol-4-yl)-2-(1H-pyrazol-4-yl)thiazole-4-carboxamide]	212 nM	109 nM		
O=C(Nc1cn(Cc2ccccc2)nc1-c1ccccn1)c1csc(-c2cn[nH]c2)n1 [II-120, N-(1-benzyl-3-(pyridin-2-yl)-1H-pyrazol-4-yl)-2-(1H-pyrazol-4-yl)thiazole-4-carboxamide]	1170 nM	664 nM		
O=C(Nc1cn(C2CCC2)nc1-c1ccccn1)c1csc(-c2cn[nH]c2)n1 [II-121, N-(1-cyclobutyl-3-(pyridin-2-yl)-1H-pyrazol-4-yl)-2-(1H-pyrazol-4-yl)thiazole-4-carboxamide]	44.4 nM	98.6 nM		
O=C(Nc1cn(CCOCC(F)F)nc1-c1ccccn1)c1csc(-c2cn[nH]c2)n1 [II-122, N-(1-(2-(2,2-difluoroethoxy)ethyl)-3-(pyridin-2-yl)-1H-pyrazol-4-yl)-2-(1H-pyrazol-4-yl)thiazole-4-carboxamide]	304 nM	213 nM		
O=C(Nc1cn(CC2CC(O)C2)nc1-c1ccccn1)c1csc(-c2cn[nH]c2)n1 (centres unmarked) [II-123, N-(1-(((1r,3r)-3-hydroxycyclobutyl)methyl)-3-(pyridin-2-yl)-1H-pyrazol-4-yl)-2-(1H-pyrazol-4-yl)thiazole-4-carboxamide]	149 nM	27.1 nM		
CN(C)C(=O)n1cc(NC(=O)c2csc(-c3cn[nH]c3)n2)c(-c2ccccn2)n1 [II-125, N-(1-(dimethylcarbamoyl)-3-(pyridin-2-yl)-1H-pyrazol-4-yl)-2-(1H-pyrazol-4-yl)thiazole-4-carboxamide]	27300 nM	1240 nM		
[2H]C([2H])([2H])C([2H])([2H])O[C@H]1C[C@@H](n2cc(NC(=O)c3csc(-c4cn[nH]c4)n3)c(-c3ccccn3)n2)C1 [II-127, N-(1-((1s,3s)-3-(ethoxy-d5)cyclobutyl)-3-(pyridin-2-yl)-1H-pyrazol-4-yl)-2-(1H-pyrazol-4-yl)thiazole-4-carboxamide]	81 nM	48.7 nM		
CCN(CC)C(=O)n1cc(NC(=O)c2csc(-c3cn[nH]c3)n2)c(-c2ccccn2)n1 [II-128, N-(1-(diethylcarbamoyl)-3-(pyridin-2-yl)-1H-pyrazol-4-yl)-2-(1H-pyrazol-4-yl)thiazole-4-carboxamide]	2480 nM	1150 nM		
O=C(Nc1cn([C@H]2C[C@@H](OCCF)C2)nc1-c1ccccn1)c1csc(-c2cn[nH]c2)n1 [II-130, N-(1-((1s,3s)-3-(2-fluoroethoxy)cyclobutyl)-3-(pyridin-2-yl)-1H-pyrazol-4-yl)-2-(1H-pyrazol-4-yl)thiazole-4-carboxamide]	89.8 nM	56 nM		
O=C(Nc1cn(C(=O)N2CCOCC2)nc1-c1ccccn1)c1csc(-c2cn[nH]c2)n1 [II-131, N-(1-(morpholine-4-carbonyl)-3-(pyridin-2-yl)-1H-pyrazol-4-yl)-2-(1H-pyrazol-4-yl)thiazole-4-carboxamide formate]	9360 nM			360 nM
O=C(Nc1cn(C2C=C(F)C2)nc1-c1ccccn1)c1csc(-c2cn[nH]c2)n1 (centres unmarked) [II-132, N-(1-(3-fluorocyclobut-2-en-1-yl)-3-(pyridin-2-yl)-1H-pyrazol-4-yl)-2-(1H-pyrazol-4-yl)thiazole-4-carboxamide]	924 nM	224 nM		
